Entries after “also recorded” stand apart in the source; their conditions may differ. Where two headings read alike, the source gives them in different places.
Columns and labels:
[1] = tested on: nociceptive spinal reflexes; experiment: animal or person; type: in vivo, rabbit (male New Zealand white); conditions: for ED50: Oryctolagus cuniculus, iv; for Effect on baseline, facilitation and wind-up responses: all three measures, FIG. 1, 2, 4
Procedure: Male New Zealand white rabbits (2.5-3.5 kg) were anaesthetised by an injection of 0.9% alphaxalone and 0.3% alphadolone (Saffan) directly into an ear vein. A cervical spinalization was performed and the cerebral cortex removed (decerebration) allowing anaesthesia to be discontinued. The left hind limb was shaved and a bipolar recording electrode inserted into the biceps femoris/semitendinous muscle. A noxious stimulus was applied to the area of the receptive field of the motor units to the skin of the foot. Single shocks (1 ms square pulses; 2 times threshold) were applied at a rate of 1 per minute. The conditioning stimulus was 20 of these impulses at a rate of 1 Hz, producing wind-up. The baseline parameters were again applied 20 seconds following the conditioning stimulus, the first of these stimuli is termed the facilitation of the baseline response. Injections were administered at 15 minute intervals, the first two always being the relevant drug vehicle. The time-course of events throughout the experiment was as shown below:
t=0 mins: Dose with vehicle (i.v.).
t=40 sec: Begin baseline stimulation (1 per minute).
t=10 mins: Conditioning stimulus applied (20 @ 1 Hz; wind-up).
t=10 mins 40 secs: Baseline stimulation resumes (Initial baseline response equates to facilitation).
t=15 mins: Dose with vehicle (i.v.).
t=25 mins: Conditioning stimulus applied.
t=25 mins 40 secs: Baseline stimulation resumes.
t=30 mins: Dose with test compound (i.v.).
t=40 mins: Conditioning stimulus applied.
t=40 mins 40 secs: Baseline stimulation resumes.
t=45 mins and every 15 minutes thereafter: Drug treatment (i.v.).
t=55 mins and every 15 minutes thereafter: Conditioning stimulus applied.
40 seconds after each conditioning stimulus baseline stimulation is resumed.
In each experiment the values obtained to the second vehicle were used as the control response. Each of the values obtained with drug treatment was expressed as a percentage of the control response. In the case of changes in baseline the last four values obtained prior to the conditioning response were taken to represent baseline activity. The effect of drug treatment was determined by comparing the baseline post-drug to the control baseline. Four rabbits were used in each experiment unless otherwise stated.

[2] = tested on: morphine-induced emesis; conditions: ferrets; cited from earlier work
[3] = tested on: phenylbenzoquinone-induced writhing; conditions: Garret et al.; cited from earlier work
[4] = tested on: formalin test; conditions: Garret et al.; cited from earlier work
[5] = baseline, i.v., decerebrate, spinalized rabbit, read-out: Approximate ID50, inhibition of baseline firing rate
[6] = facilitation, i.v., decerebrate, spinalized rabbit, read-out: Approximate ID50, inhibition of facilitation
[7] = wind-up, i.v., decerebrate, spinalized rabbit, read-out: Approximate ID50, inhibition of wind-up

COc1ccccc1CN[C@H]1CCCN[C@H]1c1ccccc1 [CP-99,994]
Facilitation of nociceptive spinal reflexes ([1]; CP-99,994 1-100 μg/kg i.v.): reduce facilitation of nociceptive spinal reflexes | ED50 [1, 5]: 0.05 mg/kg | ED50 [1, 6]: 0.008 mg/kg | ED50 [1, 7]: 0.01 mg/kg | Effect on baseline, facilitation and wind-up responses ([1]; i.v.): dose-dependent reduction in all three measures | Antagonism of the anti-nociceptive effects of morphine by CP-99,994 ([1]; rabbit, in vivo): not antagonised | Effect of CP-99,994 and morphine given together on the nociceptive reflex ([1]; rabbit, in vivo): appeared to be additive to those of morphine | Emetic response to morphine [2]: attenuate the emetic response to morphine

COc1ccccc1CN[C@@H]1CCCN[C@@H]1c1ccccc1 [CP-100,263]
ED50 [1, 5]: > 1 mg/kg | ED50 [1, 6]: > 1 mg/kg | ED50 [1, 7]: > 1 mg/kg | Effect on baseline, facilitation and wind-up responses ([1]; i.v.): did not inhibit baseline, facilitation or wind-up responses; also recorded: lack of effect

CN1CC[C@]23c4c5ccc(O)c4O[C@H]2[C@@H](O)C=C[C@H]3[C@H]1C5 [Morphine, morphine]
Approximate ID50, inhibition of baseline firing rate ([1]; baseline, i.v., decerebrate, spinalized rabbit): 0.5 mg/kg | Approximate ID50, inhibition of facilitation ([1]; facilitation, i.v., decerebrate, spinalized rabbit): 0.5 mg/kg | Effect of morphine pre-treatment on CP-99,994 induced inhibition of each measure ([1]; morphine 0.5 mg/kg i.v. prior to CP-99,994 dose response curve, FIG. 3): failed to attenuate the CP-99,994 induced inhibition of each measure | Approximate ID50, inhibition of wind-up ([1]; wind-up, i.v., decerebrate, spinalized rabbit): 0.5 mg/kg

COc1ccccc1CC(=N)N1C[C@@H]2C(=O)CCC(c3ccccc3)(c3ccccc3)[C@@H]2C1 [RP 67,580]
Analgesia potency relative to morphine, phenylbenzoquinone-induced writhing [3]: potency comparable to that of morphine | Analgesia potency relative to morphine, formalin test [4]: potency comparable to that of morphine
